Test results: patent US20260315604A1, “OTUB1 Small-Molecule Binders and OTUB1-recruiting Deubiquitinase-targeting Chimeras (DUBTACs)” (ICAHN SCHOOL OF MEDICINE AT MOUNT SINAI, priority 2023, published 2026)

These molecules were tested against T1, Human OTUB1 wild-type (Homo sapiens, UniProt Q96FW1) (assay: Covalent modification of OTUB1 (adduct formation), mass spectrometry-based assay (OTUB1 covalent binders; selected CFTR or cGAS based bivalent compounds)). Conditions: covalent adduct formation with OTUB1 protein.
T1 construct: His tag (N); made in house; host or cells: E. coli BL21-CodonPlus (DE3)-RIPIL
Type: binding
Method: OTUB1 covalent binders were tested for their ability to form the covalent adduct with OTUB1 protein using a mass-spectrometry based assay.
Example 389. Assessment of the Covalent Modification of OTUB1 Protein by Selected OTUB1 Covalent Binders Using a Mass Spectrometry-Based Assay (FIG. 1)
OTUB1 protein (10 μM) was incubated with selecting compounds (2500 μM) at RT for 1 h. The adduct was qualified by mass spectrometry-based assays.
Example 398. Assessment of the Covalent Modification of OTUB1 Protein by Selected CFTR Based Bivalent Compounds Using Mass Spectrometry-Based Assay (FIG. 10)
OTUB1 protein (10 μM) was incubated with selecting bivalent compounds (2500 μM) at RT for 1 h. The adduct was qualified by mass spectrometry-based assays.
Human OTUB1 wild-type (NM_017670.3) and C23S mutation genes were optimized based on the codon preference of E. coli, synthesized and cloned into pET15b vector with a N-terminal His tag by Genscript, respectively. The plasmid was transferred to BL21-CodonPlus (DE3)-RIPIL Competent Cell (230280, Agilent Technologies) and the recombinant protein was induced expressed by 0.5 mM IPTG at 16° C. with shaking 200 rpm for 18 h. Induced cells were harvested by centrifugation and resuspended in cold lysis buffer (50 mM Tris-H—Cl pH 7.5, 150 mM NaCl, 25 mM imidazole pH 7.5, 0.01% IGEPAL, 5% Glycerol) in the presence of Pierce Protease Inhibitor tablets (PIA32963, Fisher Scientific) and 2 mM TCEP pH 7.5.
The cells were lysed by sonication, clarified by centrifugation, and the filtered supernatant loaded onto a 5 ml HisTrap HP affinity column (17524802, Cytiva) in AKTA system. The His-recombinant protein bound to column was washed using buffer A (50 mM Tris-HCl pH 7.5, 150 mM NaCl, 25 mM imidazole pH 7.5, 0.01% IGEPAL, 5% Glycerol) and eluted with buffer B (50 mM Tris-HCl pH 7.5, 150 mM NaCl, 250 mM imidazole pH 7.5, 0.01% IGEPAL, 5% Glycerol). The eluted fractions containing OTUB1 protein were concentrated and subjected to size exclusion chromatography using a 320 mL HiLoad 26/600 Superdex 200 pg column (28989336, Cytiva) under the buffer condition ([…] Tris-HCl pH 7.5, 150 mM NaCl, and 2 mM TCEP pH 7.5). The eluted fractions containing OTUB1 protein were concentrated, divided into aliquots and stored at −80° C. freezer for further usage.
Quality control of the OTUB1 proteins was performed by SDS-PAGE, Nanodrop and mass spectrometry.
Mass Spectrometry-Based Analysis of OTUB1-Covalent Ligand Adducts
To screen the covalent ligands, recombinant OTUB1 protein (10 μM) was respectively incubated with DMSO, EN523 or seven novel ligands (2500 μM) in reaction buffer (50 mM Tris-HCl pH 7.5, 150 mM NaCl, and 0.5 mM TCEP pH 7.5) for 1 h at room temperature.
Then, the total 500 μL reaction solution was exchanged and concentrated to 50 μL 50 mM ammonium bicarbonate with a 10 kDa MWCO centrifugal filter unit (UFC901024, Millipore) and diluted in MS buffer (30% ACN, 0.2% FA) to a final concentration of […]. Mass spectrometry detection was performed by an Agilent LC/MSD Time-Of-Flight (TOF) mass spectrometer (Agilent Technologies) equipped with an electrospray ion source. The data was analyzed by TOF Protein Confirmation Software. All experiments were performed in duplicate.

T1 sequence (Q96FW1 whole entry): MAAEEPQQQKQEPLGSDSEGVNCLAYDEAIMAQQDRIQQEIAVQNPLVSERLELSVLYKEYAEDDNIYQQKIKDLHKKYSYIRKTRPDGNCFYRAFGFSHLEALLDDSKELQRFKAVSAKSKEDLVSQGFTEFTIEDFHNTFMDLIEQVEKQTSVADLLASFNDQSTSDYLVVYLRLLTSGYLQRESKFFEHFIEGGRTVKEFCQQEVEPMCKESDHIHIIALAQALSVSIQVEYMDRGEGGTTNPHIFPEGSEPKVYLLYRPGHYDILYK

| % of OTUB1 modified [%] | SMILES |
| --- | --- |
| 90 | CCCC(=O)N1CC2CC(C1)N2C(=O)C#CCN(C)C [XS209-166, 1-(3-butyryl-3,6-diazabicyclo[3.1.1]heptan-6-yl)-4-(dimethylamino)but-2-yn-1-one] |
| 100 | CN(C)C/C=C/C(=O)N1C2CCC1C(=O)N(c1cc3ccccc3s1)C2 (stereo not drawn) [XS190-38, (E)-3-(benzo[b]thiophen-2-yl)-8-(4-(dimethylamino)but-2-enoyl)-3,8-diazabicyclo[3.2.1]octan-2-one] |
| 78 | CC(=O)N1CCC(c2ccc(C(=O)N3CC4CC(C3)N4C(=O)/C=C/CN(C)C)s2)C1 (stereo not drawn) [XS197-71, (E)-1-(3-(5-(1-acetylpyrrolidin-3-yl)thiophene-2-carbonyl)-3,6-diazabicyclo[3.1.1]heptan-6-yl)-4-(dimethylamino)but-2-en-1-one] |
| 70 | CN(C)C/C=C/C(=O)N1C2CC1CN(C(=O)c1csc3ccccc13)C2 [XS190-47, (E)-1-(3-(benzo[b]thiophene-3-carbonyl)-3,6-diazabicyclo[3.1.1]heptan-6-yl)-4-(dimethylamino)but-2-en-1-one] |
| 70 | CC(=O)N1CC2CC(C1)N2C(=O)/C=C/CN(C)C [XS190-186, (E)-1-(3-acetyl-3,6-diazabicyclo[3.1.1]heptan-6-yl)-4-(dimethylamino)but-2-en-1-one] |
| 15 | Cc1ccc(C(=O)N2C3CCC2CN(C(=O)/C=C/CN(C)C)C3)s1 [XS185-71, (E)-4-(dimethylamino)-1-(8-(5-methylthiophene-2-carbonyl)-3,8-diazabicyclo[3.2.1]octan-3-yl)but-2-en-1-one] |
| 75 | CN1CC2CCC(C1=O)N2C(=O)CCl (stereo not drawn) [XS197-29, 8-(2-chloroacetyl)-3-methyl-3,8-diazabicyclo[3.2.1]octan-2-one] |
| 1 | CN(C)C/C=C/C(=O)N1CC2(C1)CN(c1cc3ccccc3s1)C2 [XS185-46, (E)-1-(6-(benzo[b]thiophen-2-yl)-2,6-diazaspiro[3.3]heptan-2-yl)-4-(dimethylamino)but-2-en-1-one] |
| 60 | CC(C)c1ccc(NC(=O)C2CN(C(=O)C#CC(C)(C)N(C)C)C2)s1 [XS224-117, 1-(4-(dimethylamino)-4-methylpent-2-ynoyl)-N-(5-isopropylthiophen-2-yl)azetidine-3-carboxamide] |
| 45 | Cc1cc(C)c(N2CCN(C(=O)/C=C/CN(C)C)CC2=O)s1 [XS175-45, (E)-4-(4-(dimethylamino)but-2-enoyl)-1-(3,5-dimethylthiophen-2-yl)piperazin-2-one] |
| 60 | CN(C)C/C=C/C(=O)N1CC(C(=O)Nc2cc3ccccc3s2)C1 [XS185-90, (E)-N-(benzo[b]thiophen-2-yl)-1-(4-(dimethylamino)but-2-enoyl)azetidine-3-carboxamide] |
| 95 | Cc1ccc(N2CC3CCC(C2=O)N3C(=O)C#CCN(C)C)s1 (stereo not drawn) [XS197-185, 8-(4-(dimethylamino)but-2-ynoyl)-3-(5-methylthiophen-2-yl)-3,8-diazabicyclo[3.2.1]octan-2-one] |
| 5 | C=CC(=O)N1CCC(=O)N(c2cccc(C)c2)CC1 [XS165-53, 1-acryloyl-4-(m-tolyl)-1,4-diazepan-5-one] |
| 7 | Cc1ccc(C(=O)N2CC(NC(=O)/C=C/CN(C)C)C2)s1 [XS224-143, (E)-4-(dimethylamino)-N-(1-(5-methylthiophene-2-carbonyl)azetidin-3-yl)but-2-enamide] |
| 7 | Cc1ccc(C(=O)N2CC3CCC2CN3C(=O)/C=C/CN(C)C)s1 (stereo not drawn) [XS190-77, (E)-4-(dimethylamino)-1-(5-(5-methylthiophene-2-carbonyl)-2,5-diazabicyclo[2.2.2]octan-2-yl)but-2-en-1-one] |
| 60 | CN(C)C(C)(C)C#CC(=O)N1CC(C(=O)Nc2csc3ccccc23)C1 [XS224-119, N-(benzo[b]thiophen-3-yl)-1-(4-(dimethylamino)-4-methylpent-2-ynoyl)azetidine-3-carboxamide] |
| 43 | CN(C)C/C=C/C(=O)N1C2CC1CN(C(=O)C1CCC1)C2 [XS197-38, (E)-1-(3-(cyclobutanecarbonyl)-3,6-diazabicyclo[3.1.1]heptan-6-yl)-4-(dimethylamino)but-2-en-1-one] |
| 45 | CN(C)C/C=C/C(=O)N1C2CC1CN(C(=O)C1CN(C)C1)C2 [XS197-85, (E)-4-(dimethylamino)-1-(3-(1-methylazetidine-3-carbonyl)-3,6-diazabicyclo[3.1.1]heptan-6-yl)but-2-en-1-one] |
| 70 | Cc1ccsc1N1CCN(C(=O)/C=C/CN(C)C)CC1=O [XS175-68, (E)-4-(4-(dimethylamino)but-2-enoyl)-1-(3-methylthiophen-2-yl)piperazin-2-one] |
| 92 | CN(C)C/C=C/C(=O)N1C2CC1CN(C(=O)c1ccc(C3CCN(C)CC3)s1)C2 [XS197-74, (E)-4-(dimethylamino)-1-(3-(5-(1-methylpiperidin-4-yl)thiophene-2-carbonyl)-3,6-diazabicyclo[3.1.1]heptan-6-yl)but-2-en-1-one] |
| 80 | Cc1cnc(C(=O)N2CC3CC(C2)N3C(=O)/C=C/CN(C)C)s1 [XS209-65, (E)-4-(dimethylamino)-1-(3-(5-methylthiazole-2-carbonyl)-3,6-diazabicyclo[3.1.1]heptan-6-yl)but-2-en-1-one] |
| 18 | Cc1ccc(NC(=O)C2CC3(C2)CN(C(=O)/C=C/CN(C)C)C3)s1 [XS175-149, (E)-2-(4-(dimethylamino)but-2-enoyl)-N-(5-methylthiophen-2-yl)-2-azaspiro[3.3]heptane-6-carboxamide] |
| 40 | Cc1ccc(NC(=O)C2CN(C(=O)/C=C/CN(C)C)C2)s1 [XS175-71, (E)-1-(4-(dimethylamino)but-2-enoyl)-N-(5-methylthiophen-2-yl)azetidine-3-carboxamide] |
| 45 | CN(C)C/C=C/C(=O)N1CCN(c2ccc(-c3ccccc3)s2)C(=O)C1 [XS175-158, (E)-4-(4-(dimethylamino)but-2-enoyl)-1-(5-phenylthiophen-2-yl)piperazin-2-one] |
| 18 | CN(C)C/C=C/C(=O)N1CC(C(=O)NC2CCCC2)C1 [XS185-131, (E)-N-cyclopentyl-1-(4-(dimethylamino)but-2-enoyl)azetidine-3-carboxamide] |
| 100 | CN(C)CC#CC(=O)N1CC(C(=O)Nc2cc3c(s2)CCCC3)C1 [XS224-108, 1-(4-(dimethylamino)but-2-ynoyl)-N-(4,5,6,7-tetrahydrobenzo[b]thiophen-2-yl)azetidine-3-carboxamide] |
| 97 | CN(C)C/C=C/C(=O)N1C2CCC1C(=O)N(c1csc3ccccc13)C2 (stereo not drawn) [XS190-44, (E)-3-(benzo[b]thiophen-3-yl)-8-(4-(dimethylamino)but-2-enoyl)-3,8-diazabicyclo[3.2.1]octan-2-one] |
| 15 | Cc1ccc(C(=O)NC2CC(NC(=O)C#CC(C)(C)N(C)C)C2)s1 (stereo not drawn) [XS224-149, N-(3-(4-(dimethylamino)-4-methylpent-2-ynamido)cyclobutyl)-5-methylthiophene-2-carboxamide] |
| 95 | CC(C)c1ccc(N2CCN(C(=O)/C=C/CN(C)C)CC2=O)s1 [XS175-64, (E)-4-(4-(dimethylamino)but-2-enoyl)-1-(5-isopropylthiophen-2-yl)piperazin-2-one] |
| 100 | CC(=O)N1CC2CC(C1)N2C(=O)C#CCN(C)C [XS209-101, 1-(3-acetyl-3,6-diazabicyclo[3.1.1]heptan-6-yl)-4-(dimethylamino)but-2-yn-1-one] |
